Data from patent US4292317A, “1,4-Dihydro-quinoline-3-carboxylic acid derivatives, process for their preparation and compositions containing them” (Laboratorie Roger Bellon, priority 1977, dated 1981).
≈ marks a conversion by molar mass, not a printed value.

Assays:
Type in all cases: cell-based
Salm. typhi 0901 = test: microbe, parasite or virus in culture; details: Salmonella enterica, 18 h; Table 2; Salm. typhi 0901 (Gram negative)
Method: (§1) After sterilisation at 120° C., the pH was 6.8.
(§2) The minimum inhibitory concentrations (M.I.C.) were determined by dilution of the test compounds in this mixture, the concentration ranging from 0.05 to 100 μg/cm^3 in a geometric progression with a factor of 2.
(§3) The inoculation of the dishes was carried out by means of a multiple inoculator with 10^-3 dilutions of 18 hour old broth cultures.
(§4) The dishes were placed in an oven at 37° C. and the readings were taken afer an incubation time of 18 hours. The M.I.C. was taken as the lowest concentration which inhibited a culture.

Staph. 209 P = test: M.I.C. in vitro, nutrient agar dilution; details: 18 h; Table 2; Staph. 209 P (Gram positive); read-out: M.I.C.
Method: as §1, §2, §3, §4

Strepto D.M. 19 = test: M.I.C. in vitro, nutrient agar dilution; details: 18 h; Table 2; Strepto D.M. 19 (Gram positive); read-out: M.I.C.
Method: as §1, §2, §3, §4

Pr. vulgaris 12-53 = test: M.I.C. in vitro, nutrient agar dilution; details: Proteus vulgaris, 1253, 18 h; Table 2; Pr. vulgaris 12-53 (Gram negative); read-out: M.I.C.
Method: as §1, §2, §3, §4

Ps. aeruginosa A.22 = test: M.I.C. in vitro, nutrient agar dilution; details: Pseudomonas aeruginosa, 18 h; Table 2; Ps. aeruginosa A.22 (Gram negative); read-out: M.I.C.
Method: as §1, §2, §3, §4

Staph. 9.144 = test: M.I.C. in vitro, nutrient agar dilution; details: 18 h; Table 2; Staph. 9.144 (Gram positive); read-out: M.I.C.
Method: as §1, §2, §3, §4

Esch. coli 111 B4 = test: M.I.C. in vitro, nutrient agar dilution; details: Escherichia coli, 18 h; Table 2; Esch. coli 111 B4 (Gram negative)
Method: as §1, §2, §3, §4

Klebs. pneum. 10.031 = test: M.I.C. in vitro, nutrient agar dilution; details: 18 h; Table 2; Klebs. pneum. 10.031 (Gram negative); read-out: M.I.C.
Method: as §1, §2, §3, §4

Providentia 0223 = test: M.I.C. in vitro, nutrient agar dilution; details: 18 h; Table 2; Providentia 0223 (Gram negative); read-out: M.I.C.
Method: as §1, §2, §3, §4

Pr. morganii A.236 = test: M.I.C. in vitro, nutrient agar dilution; details: Morganella morganii, 18 h; Table 2; Pr. morganii A.236 (Gram negative); read-out: M.I.C.
Method: as §1, §2, §3, §4

Arizona 6.211 = test: M.I.C. in vitro, nutrient agar dilution; details: 18 h; Table 2; Arizona 6.211 (Gram negative); read-out: M.I.C.
Method: as §1, §2, §3, §4

Esch. coli 54.127 O.M.S. = test: M.I.C. in vitro, nutrient agar dilution; details: Escherichia coli, 18 h; Table 2; Esch. coli 54.127 O.M.S. (Gram negative); read-out: M.I.C.
Method: as §1, §2, §3, §4

Sh. sonnei I.P.S. = test: M.I.C. in vitro, nutrient agar dilution; details: Shigella sonnei, 18 h; Table 2; Sh. sonnei I.P.S. (Gram negative); read-out: M.I.C.
Method: as §1, §2, §3, §4

Ps. aeruginosa 72.345 = test: M.I.C. in vitro, nutrient agar dilution; details: Pseudomonas aeruginosa, 18 h; Table 2; Ps. aeruginosa 72.345 (Gram negative); read-out: M.I.C.
Method: as §1, §2, §3, §4

Strepto A 561 = test: M.I.C. in vitro, nutrient agar dilution; details: 18 h; Table 2; Strepto A 561 (Gram positive)
Method: as §1, §2, §3, §4

Serratia = test: M.I.C. in vitro, nutrient agar dilution; details: 18 h, Table 2, Berratia (Gram negative), read-out: M.I.C.
Method: as §1, §2, §3, §4

Bord. bronchis. 4.617 = test: M.I.C. in vitro, nutrient agar dilution; details: 18 h; Table 2; Bord. bronchis. 4.617 (Gram negative); read-out: M.I.C.
Method: as §1, §2, §3, §4

B. subtilis = test: M.I.C. in vitro, nutrient agar dilution; details: Bacillus subtilis, 18 h; Table 2; B. subtilis (Gram positive); read-out: M.I.C.
Method: as §1, §2, §3, §4

S. enteritidis Danysz = test: M.I.C. in vitro, nutrient agar dilution; details: Salmonella enterica, 18 h; Table 2; S. enteritidis Danysz (Gram negative); read-out: M.I.C.
Method: as §1, §2, §3, §4

Pr. mirabilis Nig = test: M.I.C. in vitro, nutrient agar dilution; details: Proteus mirabilis, 18 h; Table 2; Pr. mirabilis Nig (Gram negative); read-out: M.I.C.
Method: as §1, §2, §3, §4

S. oranienburg 1066 = test: M.I.C. in vitro, nutrient agar dilution; details: Salmonella enterica, 18 h; Table 2; S. oranienburg 1066 (Gram negative); read-out: M.I.C.
Method: as §1, §2, §3, §4

Esch. coli 95 I.S.M. = test: M.I.C. in vitro, nutrient agar dilution; details: Escherichia coli, 18 h; Table 2; Esch. coli 95 I.S.M. (Gram negative); read-out: M.I.C.
Method: as §1, §2, §3, §4

Structure (SMILES) | MIC (Salm. typhi 0901) | MIC (Staph. 209 P) | MIC (Strepto D.M. 19) | MIC (Pr. vulgaris 12-53) | MIC (Ps. aeruginosa A.22) | MIC (Staph. 9.144) | MIC (Esch. coli 111 B4) | MIC (Klebs. pneum. 10.031) | MIC (Providentia 0223) | MIC (Pr. morganii A.236) | MIC (Arizona 6.211) | MIC (Esch. coli 54.127 O.M.S.) | MIC (Sh. sonnei I.P.S.) | MIC (Ps. aeruginosa 72.345) | MIC (Strepto A 561) | MIC (Serratia) | MIC (Bord. bronchis. 4.617) | MIC (B. subtilis) | MIC (S. enteritidis Danysz) | MIC (Pr. mirabilis Nig) | also measured
CCn1cc(C(=O)O)c(=O)c2cc(Cl)c(N3CCN(Cc4ccccc4)CC3)cc21 [Example 5, 7-(4-Benzylpiperazinyl)-6-chloro-1-ethyl-4-oxo-1,4-dihydro-quinoline-3-carboxylic acid] | 6.2 µg/mL (≈ 14.6 µM) | 0.2 µg/mL (≈ 0.47 µM) | 6.2 µg/mL (≈ 14.6 µM) | 6.2 µg/mL (≈ 14.6 µM) | 25 µg/mL (≈ 58.7 µM) | 0.8 µg/mL (≈ 1.88 µM) | 3.1 µg/mL (≈ 7.28 µM) | 0.4 µg/mL (≈ 0.939 µM) | 50 µg/mL (≈ 117 µM) | 3.1 µg/mL (≈ 7.28 µM) | 3.1 µg/mL (≈ 7.28 µM) | 6.2 µg/mL (≈ 14.6 µM) | 1.6 µg/mL (≈ 3.76 µM) | 25 µg/mL (≈ 58.7 µM) | 6.2 µg/mL (≈ 14.6 µM) | 3.1 µg/mL (≈ 7.28 µM) | 12.5 µg/mL (≈ 29.3 µM) | 0.4 µg/mL (≈ 0.939 µM) | 6.2 µg/mL (≈ 14.6 µM) | 6.2 µg/mL (≈ 14.6 µM) | MIC (S. oranienburg 1066): 100 µg/mL (≈ 235 µM); MIC (Esch. coli 95 I.S.M.): 3.1 µg/mL (≈ 7.28 µM)
CCn1cc(C(=O)O)c(=O)c2cc(Cl)c(N3CCOCC3)cc21 [Example 7, 6-Chloro-1-ethyl-7-morpholino-4-oxo-1,4-dihydro-quinoline-3-carboxylic acid] | 3.1 µg/mL (≈ 9.2 µM) | 0.2 µg/mL (≈ 0.594 µM) | 50 µg/mL (≈ 148 µM) | 0.8 µg/mL (≈ 2.38 µM) | 12.5 µg/mL (≈ 37.1 µM) | 0.4 µg/mL (≈ 1.19 µM) | 3.1 µg/mL (≈ 9.2 µM) | 0.2 µg/mL (≈ 0.594 µM) | > 100 µg/mL | 0.8 µg/mL (≈ 2.38 µM) | 1.6 µg/mL (≈ 4.75 µM) | 3.1 µg/mL (≈ 9.2 µM) | 0.8 µg/mL (≈ 2.38 µM) | 6.2 µg/mL (≈ 18.4 µM) | 100 µg/mL (≈ 297 µM) | 0.8 µg/mL (≈ 2.38 µM) | 12.5 µg/mL (≈ 37.1 µM) | 0.2 µg/mL (≈ 0.594 µM) | 3.1 µg/mL (≈ 9.2 µM) | 1.6 µg/mL (≈ 4.75 µM) | MIC (S. oranienburg 1066): > 100 µg/mL; MIC (Esch. coli 95 I.S.M.): 1.6 µg/mL (≈ 4.75 µM)
